A short description of data set [1]: Chronic effect on body weight and body fat in female DIO C57BL/6 mice, 4 weeks. It counts as in vivo. As to conditions: 50 μg/kg bid s.c.; for Day on which significant body weight decrease begins / Daily body weight compared to vehicle DIO control mice: 4 weeks; for Day on which significant body weight decrease begins: continuing through the end of the study; for Daily body weight compared to vehicle DIO control mice: p>0.0001 by the end of the study (so in the source); for Body fat change / Overall weight change: DIO mice, 4-week treatment, mean ± SEM; for Body fat change: NMR. The procedure: (§1) C57BL/6 Harlan mice are housed in groups in a specific pathogen-free barrier facility on a 12 h light/dark cycle with free access to water and standard or high-fat diet. After prefeeding on high-fat diet, mice are stratified to treatment groups (n=8), so that each group has similar mean body weight. An age-matched group with ad-libitum access to standard chow is included as standard control group. Before the experiment, mice are subcutaneously (s.c.) injected with vehicle solution and weighed for 3 days to acclimate them to the procedures.
2) Chronic effect on body weight in female DIO mice: mice are treated once (s.c. in evening hours) or twice daily (s.c. in the morning and in the evening), respectively, at the beginning and the end of the light phase with either vehicle or exendin-4 derivatives for 4 weeks. Body weight is recorded daily. Two days before start of treatment and on day 26, total fat mass is measured by nuclear magnetic resonance (NMR).
(§2) Statistical analyses are performed with Everstat 6.0 by repeated measures two-way ANOVA and Dunnetts post-hoc analyses (glucose profile) and 1-way-ANOVA, followed by Dunnetts post-hoc test (body weight, body fat). Differences versus vehicle-treated DIO control mice are considered statistically significant at the p<0.05 level.
Body weight was recorded daily, and body fat content was determined before the start and after 4 weeks of treatment. […] These changes resulted from a decrease in body fat, as shown by the absolute changes in body fat content (Table 10, FIG. 3).
Body weight was recorded daily, and body fat content was determined before the start and after 4 weeks of treatment.

Data set [2] is described as follows: Solubility testing in buffer (HPLC-UV). The data set is classed as physicochemical. The procedure:
Prior to the testing of solubility and stability of a peptide batch, its purity (HPLC-UV) was determined.
. Therefore, solutions from solid samples were prepared in different buffer systems with a concentration of 10 mg/mL compound based on the previously determined % purity. HPLC-UV was performed after 2 h of gentle agitation from the supernatant, which was obtained by 20 min of centrifugation at 4500 rpm.
[…]. This analysis also served as starting point (t0) for the stability testing.

The target of data set [3] is T1, human GIP receptor (hGIP-R) (Homo sapiens, UniProt P48546).
T1 construct: expressed in transfected cells
T1 sequence (P48546 22-466): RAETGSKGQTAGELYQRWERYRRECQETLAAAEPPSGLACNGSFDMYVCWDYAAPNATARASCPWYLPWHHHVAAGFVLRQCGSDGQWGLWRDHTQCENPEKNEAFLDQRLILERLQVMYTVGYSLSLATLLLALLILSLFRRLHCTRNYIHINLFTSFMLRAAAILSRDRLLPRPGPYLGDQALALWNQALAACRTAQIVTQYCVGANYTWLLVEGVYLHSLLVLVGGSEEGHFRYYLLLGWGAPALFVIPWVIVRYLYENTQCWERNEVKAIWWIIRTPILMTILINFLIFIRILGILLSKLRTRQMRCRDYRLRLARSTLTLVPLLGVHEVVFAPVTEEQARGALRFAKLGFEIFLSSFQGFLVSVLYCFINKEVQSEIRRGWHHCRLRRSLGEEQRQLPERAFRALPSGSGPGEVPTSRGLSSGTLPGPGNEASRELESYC
The experiment in a line: cAMP response of HEK-293 cells expressing human GIP receptor (HTRF). The data set is classed as cell-based. As to conditions: Table 6; read-out: EC50 hGIP-R. The procedure: (§3) cAMP content of cells was determined using a kit from Cisbio Corp. (cat. no. 62AM4PEC) based on HTRF (Homogenous Time Resolved Fluorescence). For preparation, cells were split into T175 culture flasks and grown overnight to near confluency in medium (DMEM/10% FBS). Medium was then removed and cells washed with PBS lacking calcium and magnesium, followed by proteinase treatment with accutase (Sigma-Aldrich cat. no. A6964). Detached cells were washed and resuspended in assay buffer (1×HBSS; 20 mM HEPES, 0.1% BSA, 2 mM IBMX) and cellular density determined. They were then diluted to 400000 cells/ml and 25 μl-aliquots dispensed into the wells of 96-well plates. For measurement, 25 μl of test compound in assay buffer was added to the wells, followed by incubation for 30 minutes at room temperature.

Data set [4] can be described thus: Acute effect on blood glucose in fed female DIO C57BL/6 mice. As to conditions: 50 μg/kg s.c.; t=1, 2, 3, 4, 6 and 24 h post dosing; p<0.0001. The data set is classed as in vivo. On the procedure:
as §1
1) Acute effect on blood glucose in fed female DIO mice: initial blood samples are taken just before first administration (s.c.) of vehicle (phosphate buffer solution) or the exendin-4 derivatives (dissolved in phosphate buffer), respectively. The volume of administration is 5 mL/kg. The animals have access to water and their corresponding diet during the experiment. Blood glucose levels are measured at t=0 h, t=1 h, t=2 h, t=3 h, t=4 h, t=6 h and t=24 h (method: Accu-Check glucometer). Blood sampling is performed by tail incision without anaesthesia.
as §2
At predefined time points, more blood samples were taken to measure blood glucose and generate the blood glucose profile over 24 h.

Data set [5] in a line: Pharmacokinetic testing in Göttinger minipigs, s.c. It counts as in vivo. As to conditions: female, minipig, plasma, sc, Mini pigs, 0.1 mg/kg s.c. On the procedure:
Female Göttinger minipigs were dosed 0.1 mg/kg subcutaneously (s.c.). Blood samples were collected after 0.25, 0.5, 1, 2, 4, 8, 24, 32, 48, 56 and 72 hours post application. Plasma samples were analyzed after protein precipitation via liquid chromatography mass spectrometry (LC/MS). PK parameters and half-life were calculated using WinonLin Version 5.2.1 (non-compartment model).

Data set [6] concerns the target T2, human GLP-1 receptor (hGLP-1 R) (Homo sapiens, UniProt P43220).
T2 construct: expressed in transfected cells
The experiment in a line: cAMP response of HEK-293 cells expressing human GLP-1 receptor (HTRF). It counts as cell-based. As to conditions: Table 6. The procedure:
as §3
A general note: In TR-FRET formats the signal depends on donor and acceptor labels being close together.

A short description of data set [7]: Pharmacokinetic testing in mice, s.c. The data set is classed as in vivo. As to conditions: mouse, plasma, sc, 1 mg/kg s.c. The procedure:
Mice were dosed 1 mg/kg subcutaneously (s.c.). The mice were sacrified and blood samples were collected after 0.25, 0.5, 1, 2, 4, 8, 16 and 24 hours post application. Plasma samples were analyzed after protein precipitation via liquid chromatography mass spectrometry (LC/MS). PK parameters and half-life were calculated using WinonLin Version 5.2.1 (non-compartment model).

Data set [8] deals with T3, human glucagon receptor (hGlucagon R) (Homo sapiens, UniProt P47871).
T3 construct: expressed in transfected cells
As to the kind of experiment: cAMP response of HEK-293 cells expressing human glucagon receptor (HTRF). As to conditions: Table 6. It counts as cell-based. On the procedure:
as §3

Setting [9] is: pH 4.5, target concentration 10 mg/ml, read-out: solubility [mg/ml] pH 4.5.
Setting [10] is: pH 7.4, target concentration 10 mg/ml, read-out: solubility [mg/ml] pH 7.4.

Structures are written as SMILES. Read-outs that look alike come from different tables or passages of the source.

The EC50 is the concentration giving half of the maximal effect. For orientation: Cmax means the maximum level reached in the sampled fluid or tissue. The half-life is the time in which the quantity being followed falls by half. A higher half-life goes with slow decline.

T2 sequence (P43220 24-463): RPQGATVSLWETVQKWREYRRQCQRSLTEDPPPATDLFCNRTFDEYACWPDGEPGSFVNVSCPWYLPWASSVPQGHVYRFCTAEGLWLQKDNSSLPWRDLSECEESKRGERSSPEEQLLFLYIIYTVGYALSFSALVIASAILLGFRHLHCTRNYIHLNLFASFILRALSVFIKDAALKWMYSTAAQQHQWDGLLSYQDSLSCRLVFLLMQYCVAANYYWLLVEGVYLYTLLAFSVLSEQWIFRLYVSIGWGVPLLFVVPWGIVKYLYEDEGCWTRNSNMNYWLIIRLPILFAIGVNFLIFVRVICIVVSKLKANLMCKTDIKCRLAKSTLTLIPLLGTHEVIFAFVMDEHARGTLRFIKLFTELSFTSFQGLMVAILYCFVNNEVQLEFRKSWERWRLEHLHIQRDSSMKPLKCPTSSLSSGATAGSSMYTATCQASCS
T3 sequence (P47871 26-477): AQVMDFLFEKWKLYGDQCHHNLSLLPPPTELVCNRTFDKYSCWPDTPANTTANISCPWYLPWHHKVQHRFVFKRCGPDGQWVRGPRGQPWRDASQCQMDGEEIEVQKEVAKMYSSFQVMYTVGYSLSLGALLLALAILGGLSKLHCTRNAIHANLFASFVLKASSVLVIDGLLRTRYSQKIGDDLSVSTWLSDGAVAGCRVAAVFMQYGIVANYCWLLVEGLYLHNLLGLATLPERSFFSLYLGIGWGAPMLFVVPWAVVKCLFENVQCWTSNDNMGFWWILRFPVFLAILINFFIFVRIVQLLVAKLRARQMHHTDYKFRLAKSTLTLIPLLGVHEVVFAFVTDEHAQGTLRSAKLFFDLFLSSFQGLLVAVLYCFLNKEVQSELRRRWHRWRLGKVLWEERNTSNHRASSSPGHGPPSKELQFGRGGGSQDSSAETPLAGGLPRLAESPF

For the compound `CCCCCCCCCCCCCCCC(=O)N[C@@H](CCC(=O)N[C@@H](CCC(=O)NCCCC[C@H](NC(=O)[C@H](CCC(N)=O)NC(=O)[C@H](CCCCN)NC(=O)[C@H](CO)NC(=O)[C@H](CC(C)C)NC(=O)[C@H](CC(=O)O)NC(=O)[C@H](CO)NC(=O)[C@@H](NC(=O)[C@H](Cc1ccccc1)NC(=O)[C@@H](NC(=O)CNC(=O)[C@H](CCC(N)=O)NC(=O)C(C)(C)NC(=O)[C@@H](N)Cc1c[nH]cn1)[C@@H](C)O)[C@@H](C)O)C(=O)N[C@@H](CC(=O)O)C(=O)N[C@@H](CCC(=O)O)C(=O)N[C@@H](CCC(N)=O)C(=O)N[C@@H](CCCNC(=N)N)C(=O)N[C@@H](C)C(=O)N[C@@H](CCCCN)C(=O)N[C@@H](CC(C)C)C(=O)N[C@@H](Cc1ccccc1)C(=O)N[C@H](C(=O)N[C@@H](CCC(=O)O)C(=O)N[C@@H](Cc1c[nH]c2ccccc12)C(=O)N[C@@H](CC(C)C)C(=O)NC(C)(C)C(=O)N[C@@H](C)C(=O)NCC(=O)NCC(=O)N1CCC[C@H]1C(=O)N[C@@H](CO)C(=O)N[C@@H](CO)C(=O)NCC(=O)N[C@@H](C)C(=O)N1CCC[C@H]1C(=O)N1CCC[C@H]1C(=O)N1CCC[C@H]1C(=O)N[C@@H](CO)C(N)=O)[C@@H](C)CC)C(=O)O)C(=O)O` [SEQ ID NO: 8, H-Aib-Q-G-T-F-T-S-D-L-S-K-Q-K(γE-γE-x53)-D-E-Q-R-A-K-L-F-I-E-W-L-Aib-A-G-G-P-S-S-G-A-P-P-P-S-NH2], in data set [1], the “Day on which significant body weight decrease begins” value came to 5 days, the “Daily body weight compared to vehicle DIO control mice” value was “reduced body weight significantly”, the “Body fat change” value is -3.81 ± 0.6 g and the “Overall weight change” value is -5.38 ± 0.5 g. Further, the solubility at 2 h in data set [2] (setting [9]) is over 8 mg/mL. Also, in data set [2] (setting [10]), the solubility at 2 h is over 8 mg/mL. In addition, the EC50 in data set [3] was 2.14 nM. Further, the “Blood glucose compared to DIO control mice” value in data set [4] is recorded as “significant decrease in blood glucose”. For the same compound, in data set [5], the Cmax is 476 ng/mL and the half-life was 18.1 h. In data set [6], this compound showed an EC50 of 0.0023 nM. Further, in data set [7], the Cmax came to 4360 ng/mL and the half-life was 3.8 h. The EC50 in data set [8] amounted to 0.0281 nM.

On to `CCCCCCCCCCCCCCCC(=O)N[C@@H](CCC(=O)N[C@@H](CCC(=O)NCCCC[C@H](NC(=O)[C@H](CCC(N)=O)NC(=O)[C@H](CCCCN)NC(=O)[C@H](CO)NC(=O)[C@H](CC(C)C)NC(=O)[C@H](CC(=O)O)NC(=O)[C@H](CO)NC(=O)[C@@H](NC(=O)[C@H](Cc1ccccc1)NC(=O)[C@@H](NC(=O)CNC(=O)[C@H](CCC(N)=O)NC(=O)C(C)(C)NC(=O)[C@@H](N)Cc1c[nH]cn1)[C@@H](C)O)[C@@H](C)O)C(=O)N[C@@H](CC(=O)O)C(=O)N[C@@H](CCC(=O)O)C(=O)N[C@@H](CCC(N)=O)C(=O)N[C@@H](CCCNC(=N)N)C(=O)N[C@@H](C)C(=O)N[C@@H](CCCCN)C(=O)N[C@@H](CC(C)C)C(=O)N[C@@H](Cc1ccccc1)C(=O)N[C@H](C(=O)N[C@@H](CCC(=O)O)C(=O)N[C@@H](Cc1c[nH]c2ccccc12)C(=O)N[C@@H](CC(C)C)C(=O)NC(C)(C)C(=O)N[C@@H](C)C(=O)N[C@H](C)C(=O)NCC(=O)N1CCC[C@H]1C(=O)N[C@@H](CO)C(=O)N[C@@H](CO)C(=O)NCC(=O)N[C@@H](C)C(=O)N1CCC[C@H]1C(=O)N1CCC[C@H]1C(=O)N1CCC[C@H]1C(=O)N[C@@H](CO)C(N)=O)[C@@H](C)CC)C(=O)O)C(=O)O` [SEQ ID NO: 7, H-Aib-Q-G-T-F-T-S-D-L-S-K-Q-K(γE-γE-x53)-D-E-Q-R-A-K-L-F-I-E-W-L-Aib-A-dAla-G-P-S-S-G-A-P-P-P-S-NH2], for which, in data set [1], the “Day on which significant body weight decrease begins” value worked out at 7 days, the “Daily body weight compared to vehicle DIO control mice” value is recorded as “statistically significant decrease”, the “Body fat change” value was -3.73 ± 0.8 g and the “Overall weight change” value was -5.49 ± 0.9 g. For the same compound, the solubility at 2 h in data set [2] (setting [9]) was over 8 mg/mL. For the same compound, in data set [2] (setting [10]), the solubility at 2 h is over 8 mg/mL. Moreover, the EC50 in data set [3] was 7.62 nM. Further, the “Blood glucose compared to DIO control mice” value in data set [4] is on record as “significant decrease in blood glucose”. In data set [5], the highest level (Cmax) was 667 ng/mL and the half-life was 29 h. Moreover, the concentration for a half-maximal effect (EC50) in data set [6] came to 0.0034 nM. In data set [7], this compound showed a Cmax of 5510 ng/mL and a half-life of 3.1 h. Besides, a half-maximal effect in data set [8] (EC50) was put at 0.101 nM.

The values above are taken from patent US9775904B2 (priority 2014, dated 2017).
